Results as given in patent publication US12071453B2, “Neuroactive steroids, compositions, and uses thereof” (Sage Therapeutics, Inc., priority 2013, dated 2024).

Key:
[1] = target: T1, GABAA receptors composed of the α1β2γ2 subunits (GABRA1/GABRB2/GABRG2) (Homo sapiens, UniProt P14867+P47870); assay: Two Electrode Voltage Clamp (TEVC), GABA receptor potentiation in Xenopus laevis oocytes, α1β2γ2; assay type: cell-based; settings: 10 μM compound, 10 μM GABA, read-out: GABA (α1β2γ2) % efficacy at 10 μM
T1 construct: expressed in transfected cells; host or cells: Xenopus laevis oocytes, injected (ratio 1:1:1)
Procedure: (§1) The Two Electrode Voltage Clamp (TEVC) technique was used to investigate the effects of compounds at a concentration of 10 μM on GABAA receptors composed of the α1β2γ2 or α4β3δ subunits expressed in oocytes from the Xenopus laevis. GABA-evoked currents were recorded from oocytes that expressed the GABA receptors and the modulatory effects of the test items on these currents were investigated.
(§2) Ovaries were harvested from Xenopus laevis females that had been deeply anesthetized by cooling at 4° C. and immersion in Tricaine methanesulfonate (MS-222 at a concentration of 150 mg/L) in sodium bicarbonate (300 mg/L). Once anesthetized the animal was decapitated and pithed following the rules of animal rights from the Geneva canton. A small piece of ovary was isolated for immediate preparation while the remaining part was placed at 4° C. in a sterile Barth solution containing in mM NaCl 88, KCl 1, NaHCO3 2.4, HEPES 10, MgSO4·7H2O 0.82, Ca(NO3)2·4H2O 0.33, CaCl2·6H2O 0.41, at pH 7.4, and supplemented with 20 μg/ml of kanamycin, 100 unit/ml penicillin and 100 μg/ml streptomycin. All recordings were performed at 18° C. and cells were super-fused with medium containing in mM: NaCl 82.5, KCl 2.5, HEPES 5, CaCl2·2H2O, ·6H2O 1, pH 7.4.
(§3) Plasmids containing the RNAs of the human GABRA1/GABRB2/GABRG2 and GABRA4/GABRB3/GABRD genes were injected into oocytes using a proprietary automated injection device (Hogg el al., J. Neurosci. Methods, (2008) 169: 65-75). These genes encode for the α1β2γ2 and α4β3δ GABAA subunits respectively. Receptor expression was assessed using electrophysiology at least two days later. The ratio of RNA injection for α1β2γ2 was 1:1:1 and for α4β3δ was 5:1:5. Electrophysiological recordings were made using an automated process equipped with standard TEVC and data were captured and analyzed using a proprietary data acquisition and analysis software running under Matlab (Mathworks Inc.). The membrane potential of the oocytes was maintained at −80 mV throughout the experiments. To explore the effects of proprietary compounds, currents were evoked by applying 10 μM (α1β2γ2) or 3 μM (α4β3δ) GABA for 30 s. These concentrations approximated the EC50 concentration of GABA at each receptor subtype. Oocytes were then re-exposed to GABA again for 30 s. 15 s after beginning the GABA application, test article was co-applied at a concentration of 10 μM for 15 s. Potentiation of the peak current was assessed. Data was filtered at 10 Hz, captured at 100 Hz and analyzed using proprietary data acquisition and analysis software running under Matlab (Mathworks Inc.). For statistical analysis values were computed either with Excel (Microsoft) or Matlab (mathworks Inc.). To obtain mean measurements with standard deviations, all experiments were carried out using at least three cells.

[2] = target: T2, GABAA receptors composed of the α4β3δ subunits (GABRA4/GABRB3/GABRD) (Homo sapiens, UniProt P28472+P48169); assay: Two Electrode Voltage Clamp (TEVC), GABA receptor potentiation in Xenopus laevis oocytes, α4β3δ; assay type: cell-based; settings: 10 μM compound, 3 μM GABA, read-out: GABA (α4β3δ) % efficacy at 10 μM
T2 construct: expressed in transfected cells; host or cells: Xenopus laevis oocytes, injected (ratio 5:1:5)
Procedure: as §1, §2, §3

[3] = target: [35S]-TBPS binding in rat brain cortical membranes; assay: Steroid inhibition of [35S]-TBPS binding, rat brain cortical membranes; settings: 3 nM [35S]-TBPS, in the presence of 5 μM GABA, read-out: 35S-TBPS Radioligand Displacement (IC50)
Procedure: TBPS binding assays using rat brain cortical membranes in the presence of 5 μM GABA has been described (Gee et al, J. Pharmacol. Exp. Ther. 1987, 241, 346-353; Hawkinson et al, Mol. Pharmacol. 1994, 46, 977-985; Lewin, A. H et al., Mol. Pharmacol. 1989, 35, 189-194).
Briefly, cortices are rapidly removed following decapitation of carbon dioxide-anesthetized Sprague-Dawley rats (200-250 g). The cortices are homogenized in 10 volumes of ice-cold 0.32 M sucrose using a glass/teflon homogenizer and centrifuged at 1500×g for 10 min at 4° C. The resultant supernatants are centrifuged at 10,000×g for 20 min at 4° C. to obtain the P2 pellets. The P2 pellets are resuspended in 200 mM NaCl/50 mM Na—K phosphate pH 7.4 buffer and centrifuged at 10,000×g for 10 min at 4° C. This washing procedure is repeated twice and the pellets are resuspended in 10 volumes of buffer. Aliquots (100 μL) of the membrane suspensions are incubated with 3 nM [^35S]-TBPS and 5 μL aliquots of test drug dissolved in dimethyl sulfoxide (DMSO) (final 0.5%) in the presence of 5 μM GABA. The incubation is brought to a final volume of 1.0 mL with buffer. Nonspecific binding is determined in the presence of 2 μM unlabeled TBPS and ranged from 15 to 25%. Following a 90 min incubation at room temp, the assays are terminated by filtration through glass fiber filters (Schleicher and Schuell No. 32) using a cell harvester (Brandel) and rinsed three times with ice-cold buffer. Filter bound radioactivity is measured by liquid scintillation spectrometry. Non-linear curve fitting of the overall data for each drug averaged for each concentration is done using Prism (GraphPad). […] The concentration of test compound producing 50% inhibition (IC50) of specific binding and the maximal extent of inhibition (Imax) are determined for the individual experiments with the same model used for the overall data and then the mean±SEM.s of the individual experiments are calculated.
Various compounds are or can be screened to determine their potential as modulators of [^35S]-TBPS binding in vitro. These assays are or can be performed in accordance with the above discussed procedures.

T2 sequence (P48169 36-554): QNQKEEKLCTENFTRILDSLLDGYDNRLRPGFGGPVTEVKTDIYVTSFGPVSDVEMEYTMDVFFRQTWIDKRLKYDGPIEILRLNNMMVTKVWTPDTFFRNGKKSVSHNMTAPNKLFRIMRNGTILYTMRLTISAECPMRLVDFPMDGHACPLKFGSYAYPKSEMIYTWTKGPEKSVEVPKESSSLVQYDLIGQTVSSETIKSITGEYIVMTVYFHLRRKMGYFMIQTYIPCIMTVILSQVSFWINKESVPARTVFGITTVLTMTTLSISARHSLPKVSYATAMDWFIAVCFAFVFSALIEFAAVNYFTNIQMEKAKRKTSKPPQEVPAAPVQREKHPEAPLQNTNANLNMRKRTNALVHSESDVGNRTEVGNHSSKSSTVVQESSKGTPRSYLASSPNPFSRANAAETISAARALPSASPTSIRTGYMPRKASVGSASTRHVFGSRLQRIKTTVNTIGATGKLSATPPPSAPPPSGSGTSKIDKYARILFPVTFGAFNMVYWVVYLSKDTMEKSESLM
T2 sequence (P28472 26-473): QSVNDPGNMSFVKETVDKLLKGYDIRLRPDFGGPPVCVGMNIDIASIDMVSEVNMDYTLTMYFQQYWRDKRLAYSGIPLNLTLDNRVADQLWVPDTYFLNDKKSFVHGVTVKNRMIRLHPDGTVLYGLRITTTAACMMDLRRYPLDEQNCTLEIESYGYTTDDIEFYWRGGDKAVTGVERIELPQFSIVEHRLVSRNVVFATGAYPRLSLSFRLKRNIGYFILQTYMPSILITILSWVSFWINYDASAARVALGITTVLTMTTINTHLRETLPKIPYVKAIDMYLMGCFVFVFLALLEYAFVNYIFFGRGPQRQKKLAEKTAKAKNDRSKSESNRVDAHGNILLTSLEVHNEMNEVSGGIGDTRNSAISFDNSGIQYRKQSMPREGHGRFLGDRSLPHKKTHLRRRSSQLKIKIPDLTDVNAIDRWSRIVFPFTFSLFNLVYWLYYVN
T2 sequence (O14764 25-452 partner): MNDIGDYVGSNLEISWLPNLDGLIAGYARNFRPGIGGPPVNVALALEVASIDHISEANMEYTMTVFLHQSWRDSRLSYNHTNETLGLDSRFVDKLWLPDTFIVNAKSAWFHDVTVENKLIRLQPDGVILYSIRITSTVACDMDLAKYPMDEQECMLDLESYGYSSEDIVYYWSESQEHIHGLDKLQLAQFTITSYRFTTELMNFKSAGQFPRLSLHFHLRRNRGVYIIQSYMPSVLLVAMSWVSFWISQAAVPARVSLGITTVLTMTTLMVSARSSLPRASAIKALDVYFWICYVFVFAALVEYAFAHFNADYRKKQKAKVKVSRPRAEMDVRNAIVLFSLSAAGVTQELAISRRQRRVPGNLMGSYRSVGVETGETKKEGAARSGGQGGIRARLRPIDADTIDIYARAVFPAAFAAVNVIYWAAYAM
T1 sequence (P14867 28-456): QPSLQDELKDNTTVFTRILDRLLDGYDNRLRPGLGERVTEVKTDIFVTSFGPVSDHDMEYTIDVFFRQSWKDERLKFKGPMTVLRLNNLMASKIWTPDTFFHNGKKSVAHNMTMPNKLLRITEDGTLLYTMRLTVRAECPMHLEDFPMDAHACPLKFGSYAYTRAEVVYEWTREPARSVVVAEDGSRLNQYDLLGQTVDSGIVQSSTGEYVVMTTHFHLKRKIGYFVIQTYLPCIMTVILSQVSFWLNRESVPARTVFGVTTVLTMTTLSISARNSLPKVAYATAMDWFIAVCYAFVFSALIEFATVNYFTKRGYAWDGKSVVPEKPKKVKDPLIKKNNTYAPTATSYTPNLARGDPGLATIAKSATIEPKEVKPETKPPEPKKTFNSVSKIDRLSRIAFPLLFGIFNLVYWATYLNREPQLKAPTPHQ
T1 sequence (P47870 26-512): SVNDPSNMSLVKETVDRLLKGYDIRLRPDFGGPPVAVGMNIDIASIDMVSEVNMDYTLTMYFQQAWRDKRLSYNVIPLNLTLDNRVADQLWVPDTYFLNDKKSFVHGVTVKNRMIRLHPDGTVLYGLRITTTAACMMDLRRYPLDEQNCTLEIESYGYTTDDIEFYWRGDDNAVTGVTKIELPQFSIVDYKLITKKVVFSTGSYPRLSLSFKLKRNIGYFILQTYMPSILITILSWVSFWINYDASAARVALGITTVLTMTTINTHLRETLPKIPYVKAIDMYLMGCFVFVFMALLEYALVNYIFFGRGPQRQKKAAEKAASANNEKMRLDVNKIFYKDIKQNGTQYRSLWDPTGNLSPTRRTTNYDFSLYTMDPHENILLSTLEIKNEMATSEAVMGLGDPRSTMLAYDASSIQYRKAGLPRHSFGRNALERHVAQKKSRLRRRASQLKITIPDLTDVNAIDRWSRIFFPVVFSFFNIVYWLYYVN
T1 sequence (P18507 40-475 partner): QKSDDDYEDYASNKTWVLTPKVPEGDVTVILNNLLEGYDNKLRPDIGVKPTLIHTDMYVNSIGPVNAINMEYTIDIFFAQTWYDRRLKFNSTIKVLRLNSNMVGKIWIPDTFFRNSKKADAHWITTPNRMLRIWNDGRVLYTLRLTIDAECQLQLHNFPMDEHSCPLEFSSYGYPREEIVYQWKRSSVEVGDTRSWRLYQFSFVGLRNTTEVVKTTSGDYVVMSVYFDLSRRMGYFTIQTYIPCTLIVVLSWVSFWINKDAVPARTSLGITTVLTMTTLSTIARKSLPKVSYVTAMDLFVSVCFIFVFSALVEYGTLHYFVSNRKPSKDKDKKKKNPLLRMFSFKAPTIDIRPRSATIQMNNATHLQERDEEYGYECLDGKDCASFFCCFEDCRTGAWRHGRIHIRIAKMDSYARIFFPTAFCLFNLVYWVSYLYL

Compound | Emax at 10 µM [1] [%] | Emax at 10 µM [2] [%] | IC50 [3] [nM]
COC[C@]12CC[C@@](C)(O)C[C@@H]1CC[C@H]1[C@@H]3CC[C@H](C(=O)Cn4cc(Cl)cn4)[C@@]3(C)CC[C@@H]12 [Compound 18] | 1000 to 1500 | 1000 to 1500 | –
COC[C@]12CC[C@@](C)(O)C[C@@H]1CC[C@H]1[C@@H]3CC[C@H](C(=O)Cn4ccnc4F)[C@@]3(C)CC[C@@H]12 [Compound 21] | 50 to 500 | 50 to 500 | 100 to 500
CCOC[C@]12CC[C@@](C)(O)C[C@@H]1CC[C@H]1[C@@H]3CC[C@H](C(=O)Cn4nnnc4C)[C@@]3(C)CC[C@@H]12 [Compound 26] | 500 to 1000 | 1000 to 1500 | 50 to 100
COC[C@]12CC[C@@](C)(O)C[C@H]1CC[C@H]1[C@@H]3CC[C@H](C(=O)Cn4nnc(C)n4)[C@@]3(C)CC[C@@H]12 [Compound 29] | 50 to 500 | 500 to 1000 | 100 to 500
COC[C@]12CC[C@@](C)(O)C[C@H]1CC[C@H]1[C@@H]3CC[C@H](C(=O)Cn4ccnn4)[C@@]3(C)CC[C@@H]12 [Compound 32] | 50 to 500 | 1000 to 1500 | 50 to 100
COC[C@]12CC[C@@](C)(O)C[C@H]1CC[C@H]1[C@@H]3CC[C@H](C(=O)Cn4cc(S(C)(=O)=O)cn4)[C@@]3(C)CC[C@@H]12 [Compound 33] | 50 to 500 | 50 to 500 | 10 to 50
COC[C@]12CC[C@@](C)(O)C[C@@H]1CC[C@H]1[C@@H]3CC[C@H](C(=O)Cn4ncc5ccncc54)[C@@]3(C)CC[C@@H]12 [Compound 45] | 500 to 1000 | 1000 to 1500 | 50 to 100
COC[C@]12CC[C@@](C)(O)C[C@@H]1CC[C@H]1[C@@H]3CC[C@H](C(=O)Cn4nnc5cccc(F)c54)[C@@]3(C)CC[C@@H]12 [Compound 47] | 500 to 1000 | 1000 to 1500 | 10 to 50
COC[C@]12CC[C@@](C)(O)C[C@@H]1CC[C@H]1[C@@H]3CC[C@H](C(=O)Cn4nnc5c(F)cccc54)[C@@]3(C)CC[C@@H]12 [Compound 48] | 500 to 1000 | 50 to 500 | 10 to 50
COC[C@]12CC[C@@](C)(O)C[C@@H]1CC[C@H]1[C@@H]3CC[C@H](C(=O)Cn4nnc5ccc(OC)cc54)[C@@]3(C)CC[C@@H]12 [Compound 51] | 500 to 1000 | 1000 to 1500 | 10 to 50
COC[C@]12CC[C@@](C)(O)C[C@@H]1CC[C@H]1[C@@H]3CC[C@H](C(=O)Cn4nc5cccc(OC)c5n4)[C@@]3(C)CC[C@@H]12 [Compound 57] | 50 to 500 | 500 to 1000 | 50 to 100
COC[C@]12CC[C@@](C)(O)C[C@@H]1CC[C@H]1[C@@H]3CC[C@H](C(=O)Cn4nnc5c(OC)cccc54)[C@@]3(C)CC[C@@H]12 [Compound 58] | 500 to 1000 | 500 to 1000 | < 10
COC[C@]12CC[C@@](C)(O)C[C@@H]1CC[C@H]1[C@@H]3CC[C@H](C(=O)Cn4nnc5cccc(Cl)c54)[C@@]3(C)CC[C@@H]12 [Compound 59] | 500 to 1000 | 500 to 1000 | 10 to 50
COC[C@]12CC[C@@](C)(O)C[C@@H]1CC[C@H]1[C@@H]3CC[C@H](C(=O)Cn4nnc5ccc(OC)c(OC)c54)[C@@]3(C)CC[C@@H]12 [Compound 62] | 500 to 1000 | 1000 to 1500 | 10 to 50
COC[C@]12CC[C@@](C)(O)C[C@@H]1CC[C@H]1[C@@H]3CC[C@H](C(=O)Cn4nc5ccc(OC)c(OC)c5n4)[C@@]3(C)CC[C@@H]12 [Compound 64] | 1000 to 1500 | 500 to 1000 | 10 to 50
COC[C@]12CC[C@@](C)(O)C[C@@H]1CC[C@H]1[C@@H]3CC[C@H](C(=O)Cn4nnc5c(OC)cc(OC)cc54)[C@@]3(C)CC[C@@H]12 [Compound 66] | 50 to 500 | 1000 to 1500 | 10 to 50
COC[C@]12CC[C@@](C)(O)C[C@@H]1CC[C@H]1[C@@H]3CC[C@H](C(=O)Cn4ncc5ncc(Br)cc54)[C@@]3(C)CC[C@@H]12 [Compound 67] | 50 to 500 | 500 to 1000 | 10 to 50
COC[C@]12CC[C@@](C)(O)C[C@@H]1CC[C@H]1[C@@H]3CC[C@H](C(=O)Cn4cc5ncc(Cl)cc5n4)[C@@]3(C)CC[C@@H]12 [Compound 68] | 50 to 500 | 1000 to 1500 | 10 to 50
COC[C@]12CC[C@@](C)(O)C[C@@H]1CC[C@H]1[C@@H]3CC[C@H](C(=O)Cn4ncc5ncc(Cl)cc54)[C@@]3(C)CC[C@@H]12 [Compound 69] | 500 to 1000 | 1000 to 1500 | 10 to 50
CCOC[C@]12CC[C@@](C)(O)C[C@@H]1CC[C@H]1[C@@H]3CC[C@H](C(=O)Cn4nnc5ccc(Cl)cc54)[C@@]3(C)CC[C@@H]12 [Compound 70] | 50 to 500 | 1000 to 1500 | 50 to 100
CCOC[C@]12CC[C@@](C)(O)C[C@@H]1CC[C@H]1[C@@H]3CC[C@H](C(=O)Cn4nnc5cc(Cl)ccc54)[C@@]3(C)CC[C@@H]12 [Compound 71] | 50 to 500 | 1000 to 1500 | 10 to 50
CCOC[C@]12CC[C@@](C)(O)C[C@@H]1CC[C@H]1[C@@H]3CC[C@H](C(=O)Cn4nc5ccc(Cl)cc5n4)[C@@]3(C)CC[C@@H]12 [Compound 72] | 50 to 500 | 1000 to 1500 | 10 to 50
COC[C@]12CC[C@@](C)(O)C[C@H]1CC[C@H]1[C@@H]3CC[C@H](C(=O)Cn4nnc5c(F)cccc54)[C@@]3(C)CC[C@@H]12 [Compound 82] | 500 to 1000 | 500 to 1000 | –
COC[C@]12CC[C@@](C)(O)C[C@@H]1CC[C@H]1[C@@H]3CC[C@H](C(=O)Cn4cc5ccc(F)cc5n4)[C@@]3(C)CC[C@@H]12 [Compound 111] | 500 to 1000 | – | 50 to 100
COC[C@]12CC[C@@](C)(O)C[C@@H]1CC[C@H]1[C@@H]3CC[C@H](C(=O)Cn4ncc5ccc(Cl)cc54)[C@@]3(C)CC[C@@H]12 [Compound 112] | 50 to 500 | – | 50 to 100
